# Measured values from patent US12239132B2, “Compounds and methods for increasing soil nutrient availability” (SOUND AGRICULTURE COMPANY, priority 2018, dated 2025).
# “Also recorded” adds a separate entry of the source.
# Assays:
# [1] = Field trial of soil phosphate depletion on Iowa farmland; assay type: in vivo; details: Iowa field plots, vs untreated plots
# Procedure: Available soil phosphate was measured at the beginning of the growing season (Pre VT) and at the end of the growing season (Post VT).
# The solubilizing activity of AB09 was measured in field trials on Iowa farmland. Over the course of a growing season, plants pull available phosphate from the soil, resulting in lower levels at the end of the season versus at the beginning. This phosphate depletion can be measured with standard soil tests.
# Bacillus megaterium = assay: Phosphate solubilization assay with Bacillus megaterium (liquid NBRIP, malachite green); assay type: cell-based; details: 100 ug/mL; for clearing (consumption) of insoluble phosphate in culture tubes, qualitative: B. megaterium in NBRIP
# Procedure: In some aspects, a compound disclosed herein, e.g., AB09, stimulates bacterial phosphate solubilization activity. […] Cultures of B. megaterium were grown in media containing only insoluble phosphorus with and without a compound such as AB09. At the start of the experiment, there was no detectable difference of orthophosphate levels in the growth media alone and media supplemented with B. megaterium and/or AB09. Orthophosphate was measured after 72 hours of bacterial growth. Specifically, A 5 mL culture of B. megaterium was seeded from a single colony into Nutrient Broth (NB) and grown overnight in a 30° C. shaker. The cell pellet was collected by centrifugation, washed twice and resuspended in water. The concentration of B. megaterium was measured using a Nanodrop OD600 reading. B. megaterium was inoculated into liquid NBRIP media, which contains insoluble tricalcium phosphate as its sole phosphorus source. The final concentration of B. megaterium in the NBRIP media was OD600=0.02 ([…]). NBRIP media was supplemented with ML in a 1% DMSO solution to a final concentration of 100 ug/ML or 1% DMSO (both were filter sterilized through a 0.2 uM filter). Cell counts at the start of the experiment (0 hours) and at 72 hours post inoculation were measured using dilution plating. At the experiment start and after 72 hours of growth, 1 mL of culture was collected from the culture tubes. The supernatant was collected by centrifugation (5 min at 13,000 rpm). The cleared supernatant was diluted […] in molecular grade water and used for orthophosphate analysis. The remaining 4 mL of supernatant were collected by centrifugation for pH readings. Orthophosphate was measured using the malachite-green phosphate method (BioAssay Systems Malachite Green Phosphate Assay Kit Catalog No: POMG-25H). Briefly, the sample is mixed with a solution of Malachite Green and molybdate, which forms a green complex with free orthophosphate from the sample. Data are quantified on a plate reader at 620 nm. Unknown samples were run with a standard curve of known concentrations of orthophosphate. […] Phosphate solubilization in NBRIP culture media is shown at experiment start (0 h) and after 72 hours of shaking at 30° C. The left axis corresponds to box plots and whisker plots of the concentration of solubilized phosphate in the bacterial supernatant. The right axis corresponds to the pH of the supernatant. n=7 culture tubes for each B. megaterium with and without ML, and n=3 culture tubes for no bacteria with and without AB09. The malachite green phosphate assay was performed in triplicate. […] In some instances, disclosed herein are experimental culture tubes of B. megaterium growing in NBRIP without ML (AB09; leftmost two tubes) and with 100 ug/mL ML (right three tubes).
# A strain of Bacillus megaterium (B. megaterium) was isolated from Iowa field soil and confirmed its ability to solubilize phosphorus by observing a cleared zone (or halo) around B. megaterium colonies when grown on solid media (NBRIP+Agar) containing only in insoluble form of phosphorus, Ca3(PO4)2. Cultures of B. megaterium were then grown in liquid NBRIP (containing only insoluble Ca3(PO4)2) with and without AB09. The growth media supernatant was analyzed for orthophosphate at the start of the experiment (0 h) and after 72 hours of growth by the malachite green quantification method.
# FIG. 1A illustrates phosphate solubilization in NBRIP culture media at experiment start (0 h) and after 72 hours of shaking at 30° C. The left axis corresponds to box plots and whisker plots of the concentration of available phosphate (orthophosphate) in the bacterial supernatant. […] The malachite green phosphate assay was performed in triplicate. FIG. 1B illustrates an example of experimental culture tubes of B. megaterium growing in NBRIP without AB09 (leftmost two tubes) and with 100 ug/mL AB09 (right three tubes). […]
# [2] = system: phosphate solubilizing bacteria (PSB); assay: Halo assay of phosphate solubilizing bacteria on agar plates containing insoluble phosphate; assay type: cell-based; details: AB09 treated PSB vs control treated PSB
# Excerpt: Larger halos indicate higher microbial solubilization activity.
# soil consortia cultures = assay: Phosphate solubilization in soil-inoculated NBRIP cultures; assay type: cell-based
# Procedure: To select for the native soil microbial consortia that solubilize phosphorus, a small quantity of soil was inoculated into flask cultures of NBRIP media. Flasks were treated with increasing amounts of AB09 and grown at room temperature on orbital shakers for 4 days. The cleared supernatant of the soil cultures were quantified for available phosphorus using the malachite green method.
# FIG. 3. AB09 induced phosphate solubilization activity occurs in a dose-dependent manner in soil consortia cultures. 50 mL of NBRIP growth medium was added to 250 mL baffled flasks, containing 500 mg of 2 mm particle-sized soil, to select for phosphate solubilizing microbes. Flasks with sterilized foam caps were placed on orbital shakers at 110 RPM for 4 days at room temperature. Orthophosphate was measured using the malachite-green phosphate method.
# 50 mL of NBRIP growth medium was added to 250 mL baffled flasks, containing 500 mg of 2 mm particle-sized soil, to select for phosphate solubilizing microbes. AB09 stock solution (10 mg/mL) was prepared in distilled water. Untreated controls received no AB09. […]
# Flasks with sterilized foam caps were placed on orbital shakers at 110 RPM for 4 days at room temperature. […] Supernatant from samples were removed and placed into new microcentrifuge tubes for orthophosphate quantification using the malachite green method.
compound,measurement,setting,value
"CC1=CC(Oc2c(C)occc2=O)OC1=O (stereo not drawn) [AB09, maltol lactone]",soil phosphate depletion over the growing season (pre VT to post VT),[1],less phosphate depletion; also recorded: significantly reduced
same,pH of the growth media (supernatant),"Bacillus megaterium; 72 hours, concurrent with phosphate solubilization increase",decrease
same,"clearing (consumption) of insoluble phosphate in culture tubes, qualitative",Bacillus megaterium,increased clearing
same,"clearing (consumption) of insoluble phosphate in culture tubes, qualitative",Bacillus megaterium; listed as ML,Increased consumption
same,average concentration of orthophosphate in B. megaterium cultures compared to control cultures,"Bacillus megaterium; NBRIP media with insoluble Ca3(PO4)2, 72 hours",significantly increased
same,phosphate solubilization increase,"Bacillus megaterium; NBRIP media, 72 hours, vs control B. megaterium cultures",two-fold
same,clearance halos around PSB colony,[2],larger clearance
same,increase of phosphate concentration over the untreated control,"soil consortia cultures; highest treatment 25 ug/mL, 4 days, room temperature",2-3 fold
same,ability of soil consortia cultures to solubilize phosphorus,"soil consortia cultures; increasing amounts of AB09, 4 days",enhanced by AB09 in a dose-responsive manner
